Where “and” joins values, the source holds several entries; their conditions need not be identical. Equal entries are not always repeated. Inconclusive results and toxic doses are left out. Rule for the calls: active = survival T/C of 150% or more; inactive = T/C below 125% in these data.
Test system: P388 leukemia ip, CD2F1 mice, survival T/C
Assay: NCI In Vivo Anticancer Drug Screen. Data for tumor model P388 Leukemia (intraperitoneal) in CD2F1 (CDF1) mice
Settings: endpoint: median survival time, higher = longer survival
Procedure, shortened: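 Mice carrying the transplanted tumor received test compound or vehicle. Survival was recorded in each group, and the value is the treated-group measurement divided by that of the vehicle-treated control group.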

[1] = dose: 25.0 mg/kg/injection, schedule: Q01DX009 (ip), vehicle: saline with Tween-80
[2] = dose: 50.0 mg/kg/injection, schedule: Q01DX009 (ip), vehicle: saline with Tween-80
[3] = dose: 100.0 mg/kg/injection, schedule: Q01DX001 (ip), vehicle: saline with Tween-80
[4] = dose: 100.0 mg/kg/injection, schedule: Q01DX009 (ip), vehicle: saline with Tween-80
[5] = dose: 200.0 mg/kg/injection, schedule: Q01DX001 (ip), vehicle: saline with Tween-80
[6] = dose: 200.0 mg/kg/injection, schedule: Q01DX009 (ip), vehicle: saline with Tween-80
[7] = dose: 100.0 mg/kg/injection, schedule: Q04DX002 (ip), vehicle: Klucel (hydroxypropylcellulose) (HPC)
[8] = dose: 200.0 mg/kg/injection, schedule: Q04DX002 (ip), vehicle: Klucel (hydroxypropylcellulose) (HPC)
[9] = dose: 400.0 mg/kg/injection, schedule: Q04DX002 (ip), vehicle: Klucel (hydroxypropylcellulose) (HPC)
[10] = dose: 100.0 mg/kg/injection, schedule: Q04DX002 (ip), vehicle: saline with Tween-80
[11] = dose: 200.0 mg/kg/injection, schedule: Q04DX002 (ip), vehicle: saline with Tween-80
[12] = dose: 400.0 mg/kg/injection, schedule: Q04DX002 (ip), vehicle: saline with Tween-80

Measured: T/C

[Cl][Sn]1([Cl])[CH2]CC[CH2][Sn]([Cl])([Cl])[CH2]CC[CH2]1
inactive: dose: 25.0 mg/kg/injection, schedule: Q01DX001 (ip), vehicle: saline 107 % of control | dose: 50.0 mg/kg/injection, schedule: Q01DX001 (ip), vehicle: saline 107 % of control | dose: 100.0 mg/kg/injection, schedule: Q01DX001 (ip), vehicle: saline 120 % of control | dose: 100.0 mg/kg/injection, schedule: Q04DX002 (ip), vehicle: saline 109 % of control

CN1C=C(C#N)CCC1Sc1ccc(Cl)cc1 (stereo unspecified)
inactive: dose: 60.0 mg/kg/injection, schedule: Q01DX005 (ip), vehicle: saline with Tween-80 105 % of control | dose: 120.0 mg/kg/injection, schedule: Q01DX005 (ip), vehicle: saline with Tween-80 103 % of control | dose: 240.0 mg/kg/injection, schedule: Q01DX005 (ip), vehicle: saline with Tween-80 104 % of control

CCNCc1c(C)nc2ccc(N(C)C)cc2c1Cl
inactive: dose: 12.5 mg/kg/injection, schedule: Q01DX009 (ip), vehicle: saline with Tween-80 91 % of control | [1] 104 % of control | [2] 88 % of control

[Se]=[Nb]=[Se]
inactive: dose: 60.0 mg/kg/injection, schedule: Q01DX005 (ip), vehicle: acid diluted with saline 89 % of control | dose: 120.0 mg/kg/injection, schedule: Q01DX005 (ip), vehicle: acid diluted with saline 93 % of control | dose: 240.0 mg/kg/injection, schedule: Q01DX005 (ip), vehicle: acid diluted with saline 90 % of control

O=C(/C=C/c1ccc(O)cc1)NCCc1c[nH]c2ccc(O)cc12
inactive: dose: 25.0 mg/kg/injection, schedule: Q01DX005 (ip), vehicle: Klucel + Tween-80 106 % of control | dose: 50.0 mg/kg/injection, schedule: Q01DX005 (ip), vehicle: Klucel + Tween-80 97 % of control | dose: 100.0 mg/kg/injection, schedule: Q01DX005 (ip), vehicle: Klucel + Tween-80 92 % of control | dose: 200.0 mg/kg/injection, schedule: Q01DX005 (ip), vehicle: Klucel + Tween-80 95 % of control

c1ccc2n[nH]nc2c1
inactive: dose: 50.0 mg/kg/injection, schedule: Q01DX009 (ip), vehicle: saline 100 % of control | [3] 112 % of control | [4] 104 % of control | dose: 100.0 mg/kg/injection, schedule: Q01DX009 (ip), vehicle: saline 100 % of control | dose: 100.0 mg/kg/injection, schedule: Q04DX003 (ip), vehicle: saline with Tween-80 95 % of control | [5] 105 % of control | [6] 109 % of control | dose: 200.0 mg/kg/injection, schedule: Q01DX009 (ip), vehicle: saline 104 % of control | dose: 200.0 mg/kg/injection, schedule: Q04DX003 (ip), vehicle: saline with Tween-80 109 % of control

O=C1CC2(CCCC2)C(=O)N1c1cccc([N+](=O)[O-])c1
inactive: dose: 50.0 mg/kg/injection, schedule: Q01DX009 (ip), vehicle: Klucel (hydroxypropylcellulose) (HPC) 92 % of control | dose: 100.0 mg/kg/injection, schedule: Q01DX009 (ip), vehicle: Klucel (hydroxypropylcellulose) (HPC) 106 % of control | dose: 200.0 mg/kg/injection, schedule: Q01DX009 (ip), vehicle: Klucel (hydroxypropylcellulose) (HPC) 101 % of control

O=C1CSC(c2ccccc2Cl)N1c1n[nH]c(=S)s1 (stereo unspecified)
inactive: [7] 98 % of control | [8] 100 % of control | [9] 97 % of control

CN(C)c1nc(=O)c2c(o1)CC(C)(C)C2
inactive: dose: 100.0 mg/kg/injection, schedule: Q04DX003 (ip), vehicle: Klucel (hydroxypropylcellulose) (HPC) 110 % of control | dose: 200.0 mg/kg/injection, schedule: Q04DX003 (ip), vehicle: Klucel (hydroxypropylcellulose) (HPC) 109 % of control | dose: 400.0 mg/kg/injection, schedule: Q04DX003 (ip), vehicle: Klucel (hydroxypropylcellulose) (HPC) 90 % of control

O=S(=O)(Oc1ccc(Cl)cc1)C(F)(F)C(F)(F)C(F)(F)C(F)(F)F
inactive: [2] 105 % of control | [4] 108 % of control | [6] 105 % of control

CC(=O)Nc1nc(=O)c2c(n1C(C)=O)N(C(C)=O)C(=O)C2
inactive: [10] 103 % of control | [11] 103 % of control | [12] 100 % of control

COc1ccc(N=Nc2c(-c3cccs3)nn(C(=S)SC)c2C(F)(F)F)cc1
inactive: dose: 7.5 mg/kg/injection, schedule: Q01DX005 (ip), vehicle: saline with Tween-80 101 % of control | dose: 15.0 mg/kg/injection, schedule: Q01DX005 (ip), vehicle: saline with Tween-80 108 % of control | dose: 30.0 mg/kg/injection, schedule: Q01DX005 (ip), vehicle: saline with Tween-80 95 % of control

O=C(Nc1ccc(NC(=O)Nc2cccc(C3=NCCCN3)c2)cc1)Nc1ccc(C2=NCCCN2)cc1
inactive: dose: 2.5 mg/kg/injection, schedule: Q01DX009 (ip), vehicle: saline with Tween-80 113 % of control | dose: 5.0 mg/kg/injection, schedule: Q04DX003 (ip), vehicle: saline with Tween-80 100 % of control | dose: 10.0 mg/kg/injection, schedule: Q04DX003 (ip), vehicle: saline with Tween-80 109 % of control

Cc1ccc(OCC2CO2)c(Br)c1 (stereo unspecified)
inactive: dose: 25.0 mg/kg/injection, schedule: Q01DX005 (ip), vehicle: saline with Tween-80 101 % of control and 104 % of control | dose: 50.0 mg/kg/injection, schedule: Q01DX005 (ip), vehicle: saline with Tween-80 100 % of control and 106 % of control (2×) | dose: 100.0 mg/kg/injection, schedule: Q01DX005 (ip), vehicle: saline with Tween-80 101 % of control and 96 % of control | dose: 200.0 mg/kg/injection, schedule: Q01DX005 (ip), vehicle: saline with Tween-80 101 % of control and 105 % of control and 111 % of control

CC(=O)Oc1ccc2c(c1)C(=O)CCCCC(=O)O2
inactive: [7] 106 % of control | [8] 116 % of control | [9] 106 % of control

CCCCCN(CCCCC)c1nsc(Cl)n1
inactive: [1] 108 % of control | [2] 103 % of control | [4] 100 % of control

Cc1ccc(N=CN(C)C)c(Cl)c1
inactive: dose: 12.5 mg/kg/injection, schedule: Q04DX003 (ip), vehicle: Klucel (hydroxypropylcellulose) (HPC) 103 % of control | dose: 25.0 mg/kg/injection, schedule: Q04DX003 (ip), vehicle: Klucel (hydroxypropylcellulose) (HPC) 101 % of control

CC(=O)OC1SC(C)(C)n2c1nc1ccccc1c2=O (stereo unspecified)
inactive: [3] 100 % of control | [5] 104 % of control | dose: 400.0 mg/kg/injection, schedule: Q01DX001 (ip), vehicle: saline with Tween-80 98 % of control

NC(=O)CC1(O)c2ccccc2C(=O)c2ccccc21
inactive: dose: 3.13 mg/kg/injection, schedule: Q01DX009 (ip), vehicle: clinical formulation 97 % of control | dose: 6.25 mg/kg/injection, schedule: Q01DX009 (ip), vehicle: clinical formulation 104 % of control | dose: 12.5 mg/kg/injection, schedule: Q01DX009 (ip), vehicle: clinical formulation 97 % of control | dose: 25.0 mg/kg/injection, schedule: Q01DX009 (ip), vehicle: clinical formulation 94 % of control | dose: 50.0 mg/kg/injection, schedule: Q01DX009 (ip), vehicle: clinical formulation 97 % of control | dose: 100.0 mg/kg/injection, schedule: Q01DX009 (ip), vehicle: clinical formulation 100 % of control

Cc1ccc(S(=O)(=O)NCCC(=O)Nc2ccccc2)cc1
inactive: dose: 25.0 mg/kg/injection, schedule: Q01DX009 (ip), vehicle: other 102 % of control | dose: 50.0 mg/kg/injection, schedule: Q01DX009 (ip), vehicle: other 103 % of control | dose: 100.0 mg/kg/injection, schedule: Q01DX009 (ip), vehicle: other 103 % of control | dose: 200.0 mg/kg/injection, schedule: Q01DX009 (ip), vehicle: other 102 % of control | dose: 400.0 mg/kg/injection, schedule: Q01DX009 (ip), vehicle: other 96 % of control

CNC(=O)On1cc(Cl)cc1C#N
inactive: dose: 50.0 mg/kg/injection, schedule: Q01DX001 (ip), vehicle: Klucel (hydroxypropylcellulose) (HPC) 101 % of control | dose: 100.0 mg/kg/injection, schedule: Q01DX001 (ip), vehicle: Klucel (hydroxypropylcellulose) (HPC) 118 % of control

CN=C(N)N/N=C(\c1ccccc1)c1ccc(Cl)c([N+](=O)[O-])c1
inactive: dose: 12.5 mg/kg/injection, schedule: Q04DX002 (ip), vehicle: saline with Tween-80 105 % of control | dose: 25.0 mg/kg/injection, schedule: Q04DX002 (ip), vehicle: saline with Tween-80 105 % of control | dose: 50.0 mg/kg/injection, schedule: Q04DX002 (ip), vehicle: saline with Tween-80 99 % of control | [10] 97 % of control | [11] 98 % of control | [12] 113 % of control

Reference: PubChem BioAssay AID330 (DTP/NCI, 2004)
